Experimental findings from ChEMBL document CHEMBL4373646, “Synthesis, ribosomal selectivity, and antibacterial activity of netilmicin 4'-derivatives” (Medchemcomm, 2019) are described below.

Data set [1] is described as follows: Inhibition of human mitochondrial ribosome Mit 13 A1555G mutant hybridized with Mycobacterium smegmatis ribosome assessed as inhibition of translation activity using Firefly luciferase mRNA reporter based luminescence analysis.
Data set [2] concerns Escherichia coli. The experiment in a line: Antibacterial activity against Escherichia coli clinical isolate AG055. It counts as functional.
The subject of data set [3] is Escherichia coli. The experiment in a line: Antibacterial activity against Escherichia coli clinical isolate AG003. It counts as functional.
In data set [4] the test system is human cytoplasmic ribosome (Cyt 14 hybrid). The experiment in a line: Selectivity ratio of IC50 for inhibition of human cytoplasmic ribosome Cyt 14 hybridized with Mycobacterium smegmatis ribosomes to IC50 for inhibition of Mycobacterium smegmatis wild type ribosomes. It is filed as toxicity. The conditions noted are these: read-out: Ratio IC50.
A short description of data set [5]: Inhibition of human mitochondrial ribosome Mit 13 hybridized with Mycobacterium smegmatis ribosome assessed as inhibition of translation activity using Firefly luciferase mRNA reporter based luminescence analysis.
Data set [6] relates to human mitochondrial ribosome (Mit 13 hybrid). The experiment in a line: Selectivity ratio of IC50 for inhibition of human mitochondrial ribosome Mit 13 hybridized with Mycobacterium smegmatis ribosome to IC50 for inhibition of Mycobacterium smegmatis wild type ribosomes. It is filed as toxicity. The conditions noted are these: read-out: Ratio IC50.
The subject of data set [7] is Staphylococcus aureus. Description: Antibacterial activity against methicillin-resistant Staphylococcus aureus clinical isolate AG039. It counts as functional.
The target in the next data set is Bacterial 70S ribosome. Description: Inhibition of Mycobacterium smegmatis wild type ribosomes assessed as inhibition of translation activity using Firefly luciferase mRNA reporter based luminescence analysis. It is filed as subcellular, Mycolicibacterium smegmatis.
Data set [8] relates to Staphylococcus aureus. Description: Antibacterial activity against methicillin-resistant Staphylococcus aureus clinical isolate AG038. It counts as functional.
A short description of data set [9]: Inhibition of human cytoplasmic ribosome Cyt 14 hybridized with Mycobacterium smegmatis ribosome assessed as inhibition of translation activity using Firefly luciferase mRNA reporter based luminescence analysis.
The test system of data set [10] is Staphylococcus aureus. Description: Antibacterial activity against methicillin-resistant Staphylococcus aureus clinical isolate AG042 harboring with ANT4',4\" gene. It is filed as functional.
In data set [11] the test system is Pseudomonas aeruginosa. The experiment in a line: Antibacterial activity against Pseudomonas aeruginosa clinical isolate AG032. It counts as functional.
Data set [12] has as its system human mitochondrial ribosome A1555G mutant (Mit 13 A1555G hybrid). Description: Selectivity ratio of IC50 for inhibition of human mitochondrial ribosome Mit 13 A1555G mutant hybridized with Mycobacterium smegmatis ribosomes to IC50 for inhibition of Mycobacterium smegmatis wild type ribosomes. It is filed as toxicity. The conditions noted are these: read-out: Ratio IC50.

In data set [13] the test system is Escherichia coli. The experiment in a line: Antibacterial activity against Escherichia coli clinical isolate AG001. It is filed as functional.
The subject of data set [14] is Pseudomonas aeruginosa. The experiment in a line: Antibacterial activity against Pseudomonas aeruginosa clinical isolate AG031. It counts as functional.
In data set [15] the test system is Pseudomonas aeruginosa. Description: Antibacterial activity against Pseudomonas aeruginosa clinical isolate AG033. It is filed as functional.

Values after ≈ are worked out from the molar mass of the structure shown.

The term IC50 denotes the point on the concentration scale where inhibition reaches its midpoint. What is called MIC is the least concentration at which growth counts as inhibited. A higher MIC goes with a less susceptible organism. With `CCN[C@@H]1C[C@H](N)[C@@H](O[C@H]2OC(CN)=C(Br)C[C@H]2N)[C@H](O)[C@H]1O[C@H]1OC[C@](C)(O)[C@H](NC)[C@H]1O`, the IC50 in [1] came to 1.2 µM; in data set [5], 52 µM; on Bacterial 70S ribosome, 0.1 µM; in data set [9] it was 146 µM. Further, the minimal inhibitory concentration (MIC) against Escherichia coli [2] was 1 to 2 µg/mL (≈ 1.8 to 3.61 µM); against Escherichia coli [3], 16 µg/mL (≈ 28.9 µM); in the data set with Staphylococcus aureus [7] it was 8 to 16 µg/mL (≈ 14.4 to 28.9 µM); in the data set on Staphylococcus aureus [8] it was 4 µg/mL (≈ 7.21 µM); with Staphylococcus aureus [10] it was 64 µg/mL (≈ 115 µM); against Pseudomonas aeruginosa [11], 8 µg/mL (≈ 14.4 µM). For the same compound, the minimal inhibitory concentration (MIC) in the data set with Escherichia coli [13] was 2 µg/mL (≈ 3.61 µM); against Pseudomonas aeruginosa [14], 8 µg/mL (≈ 14.4 µM); with Pseudomonas aeruginosa [15], 64 µg/mL (≈ 115 µM). Also, the figures for the selectivity ratio in data set [4], in data set [6] and in data set [12] were 1460, 520 and 12, respectively.
On to `CCN[C@@H]1C[C@H](N)[C@@H](O[C@H]2OC(CN)=C(SCC)C[C@H]2N)[C@H](O)[C@H]1O[C@H]1OC[C@](C)(O)[C@H](NC)[C@H]1O`, for which the concentration for half-maximal inhibition (IC50) stood at 46 µM in data set [1], 256 µM in data set [5], 0.67 µM on Bacterial 70S ribosome and 783 µM in [9]. The minimal inhibitory concentration (MIC) with Escherichia coli [2] is 8 to 16 µg/mL (≈ 14.9 to 29.9 µM); with Escherichia coli [3] it was 8 to 16 µg/mL (≈ 14.9 to 29.9 µM); against Staphylococcus aureus [7] it was 32 µg/mL (≈ 59.7 µM); in the data set with Staphylococcus aureus [8], 32 µg/mL (≈ 59.7 µM); with Staphylococcus aureus [10], 128 µg/mL (≈ 239 µM); with Pseudomonas aeruginosa [11] it was 128 µg/mL (≈ 239 µM). The MIC is 16 µg/mL (≈ 29.9 µM) in the data set with Escherichia coli [13], more than 128 µg/mL against Pseudomonas aeruginosa [14] and more than 128 µg/mL in the data set with Pseudomonas aeruginosa [15]. Besides, the values for the selectivity ratio in data set [4], in [6] and in [12] were 1160, 381 and 69, respectively.
Take `CCN[C@@H]1C[C@H](N)[C@@H](O[C@H]2OC(CN)=C(c3ccccc3)C[C@H]2N)[C@H](O)[C@H]1O[C@H]1OC[C@](C)(O)[C@H](NC)[C@H]1O`: the IC50 came to 3.5 µM in data set [1], 29 µM in [5], 0.27 µM at Bacterial 70S ribosome and 81 µM in data set [9]. The minimal inhibitory concentration (MIC) is 2 µg/mL (≈ 3.63 µM) against Escherichia coli [2]; 64 µg/mL (≈ 116 µM) against Escherichia coli [3]; 16 µg/mL (≈ 29 µM) against Staphylococcus aureus [7]; 8 µg/mL (≈ 14.5 µM) in the data set with Staphylococcus aureus [8]; 64 µg/mL (≈ 116 µM) against Staphylococcus aureus [10]; 16 to 32 µg/mL (≈ 29 to 58 µM) with Pseudomonas aeruginosa [11]. For the same compound, the MIC in the data set on Escherichia coli [13] was 4 µg/mL (≈ 7.25 µM); in the data set with Pseudomonas aeruginosa [14] it was 16 to 32 µg/mL (≈ 29 to 58 µM); against Pseudomonas aeruginosa [15] it was more than 64 µg/mL. Further, the selectivity ratio in data set [4] stood at 299; in [6] it was 106; in [12] it was 13.
Take `CCS[C@H]1[C@H](O)[C@@H](N)[C@@H](O[C@H]2[C@H](O[C@@H]3O[C@H](CO)[C@@H](O[C@H]4O[C@@H](CN)[C@@H](O)[C@H](O)[C@H]4N)[C@H]3O)[C@@H](O)[C@H](N)C[C@@H]2N)O[C@@H]1CO`: the 50% inhibitory concentration (IC50) in data set [1] is 76 µM; in data set [5], 166 µM; at Bacterial 70S ribosome, 0.053 µM; in [9], 104 µM. Besides, the selectivity ratio in data set [4] amounted to 1960; in data set [6], 3130; in data set [12] it was 1430.
For the compound `CCCCC1=C(CN)O[C@H](O[C@H]2[C@H](O)[C@@H](O[C@H]3OC[C@](C)(O)[C@H](NC)[C@H]3O)[C@H](NCC)C[C@@H]2N)[C@H](N)C1`, the IC50 in [1] turned out to be 22 µM; in data set [5], 408 µM; on Bacterial 70S ribosome, 0.58 µM; in [9] it was 940 µM. Moreover, the MIC against Escherichia coli [2] is 5 µg/mL (≈ 9.4 µM); with Escherichia coli [3], 8 to 16 µg/mL (≈ 15 to 30.1 µM); against Staphylococcus aureus [7], 16 µg/mL (≈ 30.1 µM); with Staphylococcus aureus [8], 16 µg/mL (≈ 30.1 µM); in the data set with Staphylococcus aureus [10], 64 µg/mL (≈ 120 µM); in the data set on Pseudomonas aeruginosa [11] it was 64 µg/mL (≈ 120 µM). The MIC against Escherichia coli [13] was 8 to 16 µg/mL (≈ 15 to 30.1 µM); in the data set on Pseudomonas aeruginosa [14] it was 64 µg/mL (≈ 120 µM); in the data set with Pseudomonas aeruginosa [15] it was more than 128 µg/mL. The selectivity ratio in [4] was found to be 1610; in data set [6], 699; in [12], 37.
For the compound `CCN[C@@H]1C[C@H](N)[C@@H](O[C@H]2OC(CN)=C(Cl)C[C@H]2N)[C@H](O)[C@H]1O[C@H]1OC[C@](C)(O)[C@H](NC)[C@H]1O`, the half-inhibitory concentration (IC50) was 1.5 µM in data set [1], 58 µM in [5], 0.1 µM at Bacterial 70S ribosome and more than 500 µM in [9]. Besides, the minimum inhibitory concentration (MIC) against Escherichia coli [2] was 2 to 4 µg/mL (≈ 3.92 to 7.84 µM); in the data set on Escherichia coli [3] it was 16 to 32 µg/mL (≈ 31.4 to 62.7 µM); with Staphylococcus aureus [7], 8 µg/mL (≈ 15.7 µM); in the data set with Staphylococcus aureus [8], 4 µg/mL (≈ 7.84 µM); in the data set on Staphylococcus aureus [10], 32 µg/mL (≈ 62.7 µM); against Pseudomonas aeruginosa [11], 64 µg/mL (≈ 125 µM). Further, the MIC is 4 µg/mL (≈ 7.84 µM) against Escherichia coli [13], 4 µg/mL (≈ 7.84 µM) in the data set with Pseudomonas aeruginosa [14] and more than 128 µg/mL in the data set on Pseudomonas aeruginosa [15]. For the same compound, the selectivity ratio in data set [4] is more than 5000; in [6], 580; in data set [12], 15.
Regarding `CCC[C@H]1[C@H](O)[C@@H](N)[C@@H](O[C@H]2[C@H](O[C@@H]3O[C@H](CO)[C@@H](O[C@H]4O[C@@H](CN)[C@@H](O)[C@H](O)[C@H]4N)[C@H]3O)[C@@H](O)[C@H](N)C[C@@H]2N)O[C@@H]1CO`, the IC50 was 52 µM in [1], 167 µM in data set [5], 0.031 µM at Bacterial 70S ribosome and 64 µM in data set [9]. The selectivity ratio in data set [4] stood at 2060; in data set [6], 5390; in data set [12] it was 1680.
As for `CCN[C@@H]1C[C@H](N)[C@@H](O[C@H]2OC(CN)=C(I)C[C@H]2N)[C@H](O)[C@H]1O[C@H]1OC[C@](C)(O)[C@H](NC)[C@H]1O`, the half-inhibitory concentration (IC50) in data set [1] was 1.5 µM; in data set [5] it was 49 µM; at Bacterial 70S ribosome it was 0.1 µM; in [9] it was 221 µM. Also, the MIC in the data set with Escherichia coli [2] was 1 to 2 µg/mL (≈ 1.66 to 3.33 µM); against Escherichia coli [3], 16 µg/mL (≈ 26.6 µM); with Staphylococcus aureus [7], 16 µg/mL (≈ 26.6 µM); against Staphylococcus aureus [8] it was 4 to 8 µg/mL (≈ 6.65 to 13.3 µM); in the data set on Staphylococcus aureus [10], 64 µg/mL (≈ 106 µM); in the data set with Pseudomonas aeruginosa [11], 4 to 8 µg/mL (≈ 6.65 to 13.3 µM). The MIC was 2 µg/mL (≈ 3.33 µM) against Escherichia coli [13], 4 to 8 µg/mL (≈ 6.65 to 13.3 µM) against Pseudomonas aeruginosa [14] and more than 128 µg/mL against Pseudomonas aeruginosa [15]. Moreover, the selectivity ratio in data set [4] came to 2210; in [6], 490; in data set [12] it was 15.
Turning to `CCN[C@@H]1C[C@H](N)[C@@H](O[C@H]2OC(CN)=CC[C@H]2N)[C@H](O)[C@H]1O[C@H]1OC[C@](C)(O)[C@H](NC)[C@H]1O` [NETILMICIN], the half-inhibitory concentration (IC50) in [1] was 0.7 µM; in data set [5], 28 µM; at Bacterial 70S ribosome it was 0.02 µM; in data set [9], 69 µM. The MIC is 2 µg/mL (≈ 4.21 µM) in the data set on Escherichia coli [2]; 8 µg/mL (≈ 16.8 µM) in the data set with Escherichia coli [3]; 0.5 µg/mL (≈ 1.05 µM) in the data set with Staphylococcus aureus [7]; 0.5 µg/mL (≈ 1.05 µM) in the data set on Staphylococcus aureus [8]; 2 µg/mL (≈ 4.21 µM) in the data set on Staphylococcus aureus [10]; 2 µg/mL (≈ 4.21 µM) against Pseudomonas aeruginosa [11]. Moreover, the results for the MIC with Escherichia coli [13], in the data set on Pseudomonas aeruginosa [14] and against Pseudomonas aeruginosa [15] were 2 µg/mL (≈ 4.21 µM), 2 µg/mL (≈ 4.21 µM) and more than 128 µg/mL, respectively. In addition, the selectivity ratio came to 3450 in [4], 1400 in data set [6] and 35 in [12].
Consider `NC[C@@H]1O[C@H](O[C@H]2[C@@H](O)[C@H](O[C@@H]3[C@@H](O)[C@H](N)C[C@H](N)[C@H]3O[C@H]3O[C@H](CO)[C@@H](O)[C@H](O)[C@H]3N)O[C@@H]2CO)[C@H](N)[C@@H](O)[C@@H]1O` [PAROMOMYCIN], for which the IC50 in data set [1] is 12 µM; in data set [5], 142 µM; at Bacterial 70S ribosome it was 0.038 µM; in data set [9], 31 µM. The figures for the selectivity ratio in data set [4], in [6] and in [12] were 816, 3740 and 315, respectively.
